# From patent US10238689B2, “Methods for combating bacterial infections by killing persister cells with mitomycin C and/or cisplatin” (THE PENN STATE RESEARCH FOUNDATION, priority 2015, dated 2019)
# Entries after “also recorded” stand apart in the source; their conditions may differ.
# Assays:
# [1] = test system: gDNA (rrsG and murB) of E. coli K-12 BW25113/pCA24N; test: qPCR of gDNA crosslinking in cells (in vivo); assay type: cell-based, Escherichia coli; conditions: MMC 100 μg/mL 1 h
# Protocol: Overnight cultures (16 h) of E. coli K-12 BW25113/pCA24N grown in LB were diluted 1:1000 in buffered LB and grown to the desired turbidity. For exponential phase cells (i.e., non-persisters), cultures were grown to a turbidity of 2.0 at 600 nm. For rifampicin-induced persisters, cultures were grown to a turbidity of 0.8 at 600 nm, exposed to rifampicin (100 μg/mL) for 30 min, centrifuged, and resuspended in fresh medium to remove the rifampicin. Non-persister and rifampicin-induced persister cultures were treated with MMC (100 μg/mL) for 1 h. gDNA was extracted, using an UltraClean Microbial DNA Isolation Kit (MO BIO Laboratories, Carlsbad, Calif., USA), from samples taken before and after MMC treatment and 100 ng of DNA was used for qPCR of rrsG and murB using the GoTaq qPCR Master Mix (Promega, Madison, Wis., USA) and the StepOne Real-Time PCR System (Applied Biosystems, Foster City, Calif., USA) (primers are shown in Table 2). As a positive control, 3 μg of gDNA from BW25113 non-persisters was crosslinked in vitro with 500 μg/mL (1.5 mM) MMC in 0.2 mM EDTA, 50 mM NaCl, and 5 mM Tris (pH=7.6) with Na2S2O4 added six times at 10 min intervals to reach a final concentration of 2.25 mM (1.5× molarity of MMC). The in vitro crosslinking reaction was performed anaerobically on ice and the reaction was stopped by exposure to air.
# [2] = test system: E. coli K-12 BW25113 VBNC cultures; test: VBNC antibiotic killing assay; assay type: cell-based, Escherichia coli; conditions: 16 h
# Protocol: Overnight cultures (16 h) of E. coli K-12 BW25113 grown in LB were diluted 1:1000 in LB and grown to a turbidity of 3.0 at 600 nm. Cells were washed three times with 0.85% NaCl to remove nutrients and incubated in 0.85% NaCl for 32 days until the VBNC population was ˜1,000-fold higher than the culturable population. […] Samples (0.5 mL) were diluted 1:1 with LB to stimulate cellular respiration for 10 min prior to staining with 1 μL of 1 mM RedoxSensor™ Green dye and 1 μL of 20 mM propidium iodide. Samples were visualized in a hemocytometer (Hausser Scientific, Horsham, Pa., USA) using an Olympus BX61 confocal microscope (Olympus, Tokyo, Japan) at 200× magnification in order to determine viability of the VBNC population. Cell counting data was averaged from four images and experiment was performed with at least two independent cultures.
# [3] = test system: S. aureus biofilm cultures; test: Biofilm antibiotic killing assay; assay type: cell-based, Staphylococcus aureus; conditions: minimal medium (modified M9-glucose), 24 h treatment, MMC 10 μg/mL, ciprofloxacin 5 μg/mL
# [4] = test system: EHEC biofilm cultures; conditions: M9-glucose, 24 h treatment, MMC 10 μg/mL, ciprofloxacin 5 μg/mL
# [5] = test system: E. coli K-12; assay type: cell-based, Escherichia coli
# Protocol: Persister cell killing and eradication assays (planktonic cells). For the time course experiment, late stationary phase cells of E. coli K-12 (wild-type and isogenic mutants) were prepared by growing cells overnight (16 h) in LB medium buffered with 100 mM KPO4 at pH 7.0 (buffered LB). A 1 mL culture was used for a drop (10 μL×3) assay to check cell viability at 0 h (i.e., before antibiotic treatment). […] At 1 h intervals, 1 mL culture was centrifuged at 10,000 rpm for 3 min, the supernatant was discarded, the cells were resuspended in 1 mL of normal saline (0.85% NaCl), and the cell suspension was serially diluted for a drop assay to check cell viability.
# To test for eradication, the wild-type E. coli K-12 cells were treated with cisplatin for 12 h, a 1 mL sample was centrifuged, the cell pellet was resuspended in 150 μL of normal saline, and the cells were spread on LB agar to check cell viability. Another 1 mL culture was diluted 1:10 with fresh buffered LB and the cells were incubated to allow any remaining cells to replicate. After 12 h, 18 h, and 24 h, 1 mL samples were centrifuged, resuspended in 150 μL of normal saline and spread on LB agar plates to check cell viability. At least two independent cultures were used.
# [6] = test system: E. coli K-12 cells; test: Test of DNA crosslinking compounds for antimicrobial activity; assay type: cell-based, Escherichia coli; conditions: 100 μg/mL
# Protocol: Stocks of cisplatin (2 mg/mL, Sigma-Aldrich, St. Louis, Mo., USA) were prepared in 0.1M NaClO4 and MMC (0.5 mg/mL, Fisher Scientific, Pittsburgh, Pa., USA) was prepared in water. Stocks of busulfan (2 mg/mL, Cayman Chemical, Ann Arbor, Mich., USA), melphalan (2 mg/mL, Cayman Chemical), dynemicin A (5 mg/mL, AdooQ, Irvine, Calif., USA), and tirapazamine (0.5 mg/mL, Sigma-Aldrich) were prepared in dimethylsulfoxide, the stock of cyclophosphamide (0.5 mg/mL, Cayman Chemical) was prepared in water, and the stock of carmustine (214 mg/mL, Enzo Life Sciences, Farmingdale, N.Y., USA) was prepared in ethanol.
# In this Example we tested seven other DNA crosslinking compounds: busulfan (100 μg/mL), carmustine (100 μg/mL) cisplatin (100 μg/mL), cyclophosphamide (100 μg/mL), dynemicin A (200 μg/mL), melphalan (100 μg/mL), and tirapazamine (10 μg/mL).
Compound,"Fold Change in amplifiable DNA ([1]; Non-persisters, murB)","Fold Change in amplifiable DNA ([1]; Non-persisters, rrsG)","Fold Change in amplifiable DNA ([1]; Persisters, murB)","Fold Change in amplifiable DNA ([1]; Persisters, rrsG)","fold more effective at killing VBNC cells than ciprofloxacin ([2]; VBNC population (RedoxSensor Green), MMC 10 μg/mL vs ciprofloxacin 5 μg/mL)","survival of the culturable population ([2]; culturable population of VBNC cultures, MMC 10 μg/mL, ciprofloxacin 5 μg/mL)",survival [3],cells surviving [4],eradication of persister cells (colonies from 1 mL of culture) ([5]; 5×MIC of cisplatin for 12 h),killing of katE or katG catalase mutants compared to the wild-type strain ([5]; 8 h treatment with 5×MIC of cisplatin),"time course dependent killing ([5]; late stationary phase (16 h of growth), buffered LB, cisplatin 500 μg/mL (5×MIC), ciprofloxacin 5 μg/mL (100×MIC), 8 h)","regrowth when cisplatin is withdrawn ([5]; treated culture inoculated into fresh medium, 12 h, 18 h, and 24 h)",antimicrobial activity [6]
"CO[C@@]12[C@H](COC(N)=O)C3=C(C(=O)C(C)=C(N)C3=O)N1C[C@@H]1N[C@@H]12 [MMC, mitomycin C]",−5.13±0.14 fold,−5.95±0.20 fold,−5.99±0.50 fold,−5.01±0.51 fold,7 fold,eradicates the culturable population; also recorded: eradicating the culturable population,eradicating cells beyond the limit of detection,eradicated,,,,,
"N.N.[Cl][Pt][Cl] [cisplatin, cis-diamminodichloroplatinum(II)]",,,,,,,,,completely eradicated,did not find any significant differences in killing,nearly eradicated; also recorded: eradicates late stationary-phase E. coli K-12 cells,no increase in turbidity or colonies,exhibited antimicrobial activity
